# Target: PI3K delta (Homo sapiens, UniProt O00329)
# Assay: Luciferase-coupled chemiluminescence kinase assay (ATP consumption, KinaseGlo)
# Format: biochemical
# In short: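 Compound, kinase and ATP (≤ KM) reacted 2 h at ambient temperature, then remaining ATP quantified with luciferase-luciferin (KinaseGlo) luminescence as percent consumed.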
# PI3K delta, sequence (O00329 whole entry): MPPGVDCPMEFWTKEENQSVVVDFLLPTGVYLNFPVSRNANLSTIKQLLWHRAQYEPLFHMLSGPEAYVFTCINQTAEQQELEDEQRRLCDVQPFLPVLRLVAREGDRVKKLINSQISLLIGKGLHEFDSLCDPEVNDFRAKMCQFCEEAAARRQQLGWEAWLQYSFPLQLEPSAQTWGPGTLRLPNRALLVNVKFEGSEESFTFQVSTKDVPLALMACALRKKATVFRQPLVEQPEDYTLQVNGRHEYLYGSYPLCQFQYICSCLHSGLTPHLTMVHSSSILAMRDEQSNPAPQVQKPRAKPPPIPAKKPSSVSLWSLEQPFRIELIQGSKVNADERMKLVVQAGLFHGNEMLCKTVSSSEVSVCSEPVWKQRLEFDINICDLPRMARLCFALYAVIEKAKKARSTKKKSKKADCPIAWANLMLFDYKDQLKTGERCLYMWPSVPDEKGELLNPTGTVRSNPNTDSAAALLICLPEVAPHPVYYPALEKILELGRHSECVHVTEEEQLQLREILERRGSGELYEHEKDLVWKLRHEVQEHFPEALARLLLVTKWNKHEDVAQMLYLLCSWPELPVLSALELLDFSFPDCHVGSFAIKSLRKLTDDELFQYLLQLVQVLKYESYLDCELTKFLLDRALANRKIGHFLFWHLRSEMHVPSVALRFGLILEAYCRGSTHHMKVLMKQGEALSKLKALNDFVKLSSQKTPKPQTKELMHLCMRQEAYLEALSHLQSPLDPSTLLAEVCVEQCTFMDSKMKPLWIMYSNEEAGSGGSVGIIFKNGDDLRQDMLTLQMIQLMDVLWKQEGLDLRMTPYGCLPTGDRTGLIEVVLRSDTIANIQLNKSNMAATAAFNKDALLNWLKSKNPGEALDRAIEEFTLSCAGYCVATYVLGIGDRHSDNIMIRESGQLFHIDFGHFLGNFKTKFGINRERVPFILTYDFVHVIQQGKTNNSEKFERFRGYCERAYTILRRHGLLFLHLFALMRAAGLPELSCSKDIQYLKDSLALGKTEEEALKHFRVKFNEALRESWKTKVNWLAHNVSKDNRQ
# PI3K delta, sequence (P27986 whole entry partner): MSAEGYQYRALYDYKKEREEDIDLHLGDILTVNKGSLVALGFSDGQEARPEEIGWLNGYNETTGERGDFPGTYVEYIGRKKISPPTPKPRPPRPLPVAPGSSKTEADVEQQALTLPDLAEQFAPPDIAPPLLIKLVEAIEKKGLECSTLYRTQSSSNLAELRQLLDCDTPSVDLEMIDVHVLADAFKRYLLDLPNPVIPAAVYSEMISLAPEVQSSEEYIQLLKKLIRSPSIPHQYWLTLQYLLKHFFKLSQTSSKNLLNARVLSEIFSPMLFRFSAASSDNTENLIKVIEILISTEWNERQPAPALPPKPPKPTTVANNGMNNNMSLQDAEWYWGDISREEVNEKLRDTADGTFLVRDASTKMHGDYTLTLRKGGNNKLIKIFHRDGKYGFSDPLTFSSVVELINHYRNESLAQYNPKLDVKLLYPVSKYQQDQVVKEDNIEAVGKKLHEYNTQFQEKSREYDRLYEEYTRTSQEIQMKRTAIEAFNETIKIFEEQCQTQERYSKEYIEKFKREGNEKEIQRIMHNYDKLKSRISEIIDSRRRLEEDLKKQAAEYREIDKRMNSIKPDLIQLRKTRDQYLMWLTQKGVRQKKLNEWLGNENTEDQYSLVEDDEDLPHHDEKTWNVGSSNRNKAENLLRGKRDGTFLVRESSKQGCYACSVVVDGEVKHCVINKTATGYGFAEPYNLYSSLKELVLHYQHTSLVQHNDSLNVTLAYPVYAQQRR
row,SMILES,IC50
1,"Cn1cc(-c2nc3c(N4CC[C@@H](n5c(=O)[nH]c6ccccc65)[C@H](C(=O)O)C4)ncnc3n2C)cn1 [Compound 347, (3R,4R)-1-[9-methyl-8-(1-methyl-1H-pyrazol-4-yl)-9H-purin-6-yl]-4-(2-oxo-2,3-dihydro-1H-benzimidazol-1-yl)piperidine-3-carboxylic acid]",500 to 1500 nM
2,"Cn1cc(-c2nc3c(N4CCN(c5ccccc5S(C)(=O)=O)CC4)ncnc3n2C)cn1 [Compound 350, 9-methyl-8-(1-methyl-1H-pyrazol-4-yl)-6-{4-[2-(methylsulfonyl)phenyl]piper-azin-1-yl}-9H-purine]",500 to 1500 nM
3,"Cn1cc(-c2nc3c(N4CCN(c5cccc(OCC(=O)NC6CCCC6)c5)CC4)ncnc3n2C)cn1 [Compound 356, N-cyclopentyl-2-[(3-{4-[9-methyl-8-(1-methyl-1H-pyrazol-4-yl)-9H-purin-6-yl]piperazin-1-yl}phenyl)oxy]acetamide]",500 to 1500 nM
4,"Cn1cc(-c2nc3c(N4CCN(c5cccc(OCC(=O)N6CCCCC6)c5)CC4)ncnc3n2C)cn1 [Compound 357, 9-methyl-8-(1-methyl-1H-pyrazol-4-yl)-6-(4-{3-[(2-oxo-2-piperidin-1-ylethyl)oxy]phenyl}piperazin-1-yl)-9H-purine]",500 to 1500 nM
5,"Cn1cc(-c2nc3c(N4CCN(c5cccc(OCC(=O)NC6CCCCC6)c5)CC4)ncnc3n2C)cn1 [Compound 358, N-cyclohexyl-2-[(3-{4-[9-methyl-8-(1-methyl-1H-pyrazol-4-yl)-9H-purin-6-yl]piperazin-1-yl}phenyl)oxy]acetamide]",500 to 1500 nM
6,Cn1cc(-c2nc3c(N4CCN(c5ccc(OCC6CC6)cc5)CC4)ncnc3n2C)cn1 [Compound 360],500 to 1500 nM
7,"Cn1cc(-c2nc3c(N4CCN(c5ccc(OCc6ccc7ccccc7n6)cc5)CC4)ncnc3n2C)cn1 [Compound 361, 2-{[(4-(4-[9-methyl-8-(1-methyl-1H-pyrazol-4-yl)-9H-purin-6-yl]piperazin-1-yl}phenyl)oxy]methyl)-quinoline]",500 to 1500 nM
8,"Cn1cc(-c2nc3c(N4CCN(c5ccccc5CNC(=O)C5CC5)CC4)ncnc3n2C)cn1 [Compound 362, N-[(2-{4-[9-methyl-8-(1-methyl-1H-pyrazol-4-yl)-9H-purin-6-yl]piperazin-1-yl)phenyl)methyl]cyclopropane-carboxamide]",500 to 1500 nM
9,"Cn1cc(-c2nc3c(N4CCN(c5ccccc5CNS(=O)(=O)c5ccc6ccccc6c5)CC4)ncnc3n2C)cn1 [Compound 364, N-[(2-{4-[9-methyl-8-(1-methyl-1H-pyrazol-4-yl)-9H-purin-6-yl]piperazin-1-yl}phenyl)methyl]naphthalene-2-sulfonamide]",500 to 1500 nM
10,"CCn1cc(-c2nc3c(N4CCN(c5ccccc5)CC4)ncnc3n2C)cn1 [Compound 368, 8-(1-ethyl-1H-pyrazol-4-yl)-9-methyl-6-(4-phenylpiperazin-1-yl)-9H-purine]",500 to 1500 nM
11,"Cc1ccc(S(=O)(=O)N2CCN(c3ncnc4c3nc(-c3cnn(C)c3)n4C)CC2)cc1 [Compound 370, 9-methyl-6-{4-[(4-methylphenyl)sulfonyl]-piperazin-1-yl)-8-(1-methyl-1H-pyrazol-4-yl)-9H-purine]",500 to 1500 nM
12,"Cn1cc(-c2nc3c(N4CCN(S(=O)(=O)c5ccc(F)cc5)CC4)ncnc3n2C)cn1 [Compound 372, 6-{4-[(4-fluorophenyl)sulfonyl]piperazin-1-yl}-9-methyl-8-(1-methyl-1H-pyrazol-4-yl)-9H-purine]",500 to 1500 nM
13,"Cn1cc(-c2nc3c(N4CCN(S(=O)(=O)c5ccc(Cl)cc5)CC4)ncnc3n2C)cn1 [Compound 374, 6-{4-[(4-chlorophenyl)sulfonyl]piperazin-1-yl)-9-methyl-8-(1-methyl-1H-pyrazol-4-yl)-9H-purine]",500 to 1500 nM
14,"Cn1cc(-c2nc3c(N4CCN(S(=O)(=O)c5ccccc5Cl)CC4)ncnc3n2C)cn1 [Compound 375, 6-{4-[(2-chlorophenyl)sulfonyl]piperazin-1-yl}-9-methyl-8-(1-methyl-1H-pyrazol-4-yl)-9H-purine]",250 to 500 nM
15,"COc1ccc(OC)c(S(=O)(=O)N2CCN(c3ncnc4c3nc(-c3cnn(C)c3)n4C)CC2)c1 [Compound 376, 6-(4-([2,5-bis(methyloxy)phenyl]sulfonyl}-piperazin-1-yl)-9-methyl-8-(1-methyl-1H-pyrazol-4-yl)-9H-purine]",250 to 500 nM
16,"Cn1cc(-c2nc3c(N4CCN(S(=O)(=O)c5cccc(C(F)(F)F)c5)CC4)ncnc3n2C)cn1 [Compound 377, 9-methyl-8-(1-methyl-1H-pyrazol-4-yl)-6-(4-{[3-(trifluoromethyl)phenyl]sulfonyl}-piperazin-1-yl)-9H-purine]",250 to 500 nM
17,"Cn1cc(-c2nc3c(N4CCN(S(=O)(=O)c5ccccc5C#N)CC4)ncnc3n2C)cn1 [Compound 381, 2-({4-[9-methyl-8-(1-methyl-1H-pyrazol-4-yl)-9H-purin-6-yl]piperazin-1-yl}sulfonyl)benzonitrile]",250 to 500 nM
18,"Cn1cc(-c2nc3c(N4CCN(S(=O)(=O)c5cccc(C#N)c5)CC4)ncnc3n2C)cn1 [Compound 382, 3-({4-[9-methyl-8-(1-methyl-1H-pyrazol-4-yl)-9H-purin-6-yl]piperazin-1-yl)sulfonyl)benzonitrile]",250 to 500 nM
19,"Cn1cc(-c2nc3c(N4CCN(S(=O)(=O)c5ccc(F)cc5F)CC4)ncnc3n2C)cn1 [Compound 383, 6-{4-[(2,4-difluorophenyl)sulfonyl]piperazin-1-yl)-9-methyl-8-(1-methyl-1H-pyrazol-4-yl)-9H-purine]",500 to 1500 nM
20,"CC(=O)c1ccc(S(=O)(=O)N2CCN(c3ncnc4c3nc(-c3cnn(C)c3)n4C)CC2)cc1 [Compound 384, 1-[4-({4-[9-methyl-8-(1-methyl-1H-pyrazol-4-yl)-9H-purin-6-yl]piperazin-1-yl)sulfonyl)phenyl]ethanone]",500 to 1500 nM

# More lines, now with the values ahead:
row,IC50,SMILES
1,250 to 500 nM,"Cn1cc(-c2nc3c(N4CC[C@H](c5ccccc5)[C@@H](O)C4)ncnc3n2C)cn1 [Compound 346, (3R,4R)-1-[9-methyl-8-(1-methyl-1H-pyrazol-4-yl)-9H-purin-6-yl]-4-phenylpiperidin-3-ol]"
2,50 to 250 nM,"Cn1cc(-c2nc3c(N4CCN(C5=NS(=O)(=O)c6ccccc65)CC4)ncnc3n2C)cn1 [Compound 348, 6-[4-(1,1-dioxido-1,2-benzisothiazol-3-yl)piperazin-1-yl]-9-methyl-8-(1-methyl-1H-pyrazol-4-yl)-9H-purine]"
3,50 to 250 nM,"CCn1cc(-c2nc3c(N4CCN(C5=NS(=O)(=O)c6ccccc65)CC4)ncnc3n2C)cn1 [Compound 349, 6-[4-(1,1-dioxido-1,2-benzisothiazol-3-yl)piperazin-1-yl]-8-(1-ethyl-1H-pyrazol-4-yl)-9-methyl-9H-purine]"
4,250 to 500 nM,"Cn1cc(-c2nc3c(N4CCC(c5c[nH]c6ccccc56)CC4)ncnc3n2C)cn1 [Compound 351, 6-[4-(1H-indol-3-yl)piperidin-1-yl]-9-methyl-8-(1-methyl-1H-pyrazol-4-yl)-9H-purine]"
5,< 50 nM,"CNc1ccc(-c2nc3c(N4CCC(n5c(=O)[nH]c6ccccc65)CC4)ncnc3n2C)cn1 [Compound 353, 1-(1-{9-methyl-8-[6-(methylamino)pyridin-3-yl]-9H-purin-6-yl}piperidin-4-yl)-1,3-dihydro-2H-benzimidazol-2-one]"
6,< 50 nM,"CNc1ccc(-c2nc3c(N4CCC(n5c(=O)[nH]c6ncccc65)CC4)ncnc3n2C)cn1 [Compound 354, 1-(1-{9-methyl-8-[6-(methylamino)pyridin-3-yl]-9H-purin-6-yl}piperidin-4-yl)-1,3-dihydro-2H-imidazo[4,5-b]pyridin-2-one]"
7,250 to 500 nM,"Cn1cc(-c2nc3c(N4CCN(S(=O)(=O)c5ccccc5)CC4)ncnc3n2C)cn1 [Compound 355, 9-methyl-8-(1-methyl-1H-pyrazol-4-yl)-6-[4-(phenylsulfonyl)piperazin-1-yl]-9H-purine]"
8,250 to 500 nM,"Cn1cc(-c2nc3c(N4CCN(c5cccc(OCC(=O)N6CCCCCC6)c5)CC4)ncnc3n2C)cn1 [Compound 359, 6-(4-{3-[(2-azepan-1-yl-2-oxoethyl)oxy]phenyl}piperazin-1-yl)-9-methyl-8-(1-methyl-1H-pyrazol-4-yl)-9H-purine]"
9,250 to 500 nM,"Cc1cccc(C(=O)NCc2ccccc2N2CCN(c3ncnc4c3nc(-c3cnn(C)c3)n4C)CC2)c1 [Compound 363, 3-methyl-N-[(2-{4-[9-methyl-8-(1-methyl-1H-pyrazol-4-yl)-9H-purin-6-yl]piperazin-1-yl}phenyl)methyl]benzamide]"
10,< 50 nM,"CN(C)c1ccc(-c2nc3c(N4CCC(n5c(=O)[nH]c6ncccc65)CC4)ncnc3n2C)cn1 [Compound 365, 1-(1-{8-[6-(dimethylamino)pyridin-3-yl]-9-methyl-9H-purin-6-yl}piperidin-4-yl)-1,3-dihydro-2H-imidazo[4,5-b]pyridin-2-one]"
11,250 to 500 nM,"CCn1cc(-c2nc3c(N4CCC(c5c[nH]c6ccccc56)CC4)ncnc3n2C)cn1 [Compound 366, 8-(1-ethyl-1H-pyrazol-4-yl)-6-[4-(1H-indol-3-yl)piperidin-1-yl]-9-methyl-9H-purine]"
12,50 to 250 nM,"CCn1cc(-c2nc3c(N4CCN(S(=O)(=O)c5ccccc5)CC4)ncnc3n2C)cn1 [Compound 367, 8-(1-ethyl-1H-pyrazol-4-yl)-9-methyl-6-[4-(phenylsulfonyl)piperazin-1-yl]-9H-purine]"
13,250 to 500 nM,"Cn1cc(-c2nc3c(N4CCN(S(=O)(=O)Cc5ccccc5)CC4)ncnc3n2C)cn1 [Compound 371, 9-methyl-8-(1-methyl-1H-pyrazol-4-yl)-6-{4-[(phenylmethyl)sulfonyl]piperazin-1-yl)-9H-purine]"
14,50 to 250 nM,Cn1cc(-c2nc3c(N4CCN(S(=O)(=O)c5ccccc5C(F)(F)F)CC4)ncnc3n2C)cn1 [Compound 378]
15,50 to 250 nM,"Cn1cc(-c2nc3c(N4CCN(S(=O)(=O)c5cc(Cl)ccc5Cl)CC4)ncnc3n2C)cn1 [Compound 379, 6-{4-[(2,5-dichlorophenyl)sulfonyl]piperazin-1-yl)-9-methyl-8-(1-methyl-1H-pyrazol-4-yl)-9H-purine]"
16,50 to 250 nM,"Cn1cc(-c2nc3c(N4CCN(S(=O)(=O)c5ccc(Cl)c(Cl)c5)CC4)ncnc3n2C)cn1 [Compound 380, 6-{4-[(3,4-dichlorophenyl)sulfonyl]piperazin-1-yl}-9-methyl-8-(1-methyl-1H-pyrazol-4-yl)-9H-purine]"

# From patent US20140058103A1, “Inhibitors of PI3K-Delta and Methods of Their Use and Manufacture” (Exelixis, Inc., priority 2010, published 2014)
